Columns and labels:
SIRT1 [1] = target: T1, SIRT1 (Homo sapiens, UniProt Q96EB6); assay: TAMRA based mass spectrometry assay of SIRT1 activity; format: biochemical; settings: for Emax: read-out: TAMRA % Fold Act
T1 sequence (Q96EB6 1-747): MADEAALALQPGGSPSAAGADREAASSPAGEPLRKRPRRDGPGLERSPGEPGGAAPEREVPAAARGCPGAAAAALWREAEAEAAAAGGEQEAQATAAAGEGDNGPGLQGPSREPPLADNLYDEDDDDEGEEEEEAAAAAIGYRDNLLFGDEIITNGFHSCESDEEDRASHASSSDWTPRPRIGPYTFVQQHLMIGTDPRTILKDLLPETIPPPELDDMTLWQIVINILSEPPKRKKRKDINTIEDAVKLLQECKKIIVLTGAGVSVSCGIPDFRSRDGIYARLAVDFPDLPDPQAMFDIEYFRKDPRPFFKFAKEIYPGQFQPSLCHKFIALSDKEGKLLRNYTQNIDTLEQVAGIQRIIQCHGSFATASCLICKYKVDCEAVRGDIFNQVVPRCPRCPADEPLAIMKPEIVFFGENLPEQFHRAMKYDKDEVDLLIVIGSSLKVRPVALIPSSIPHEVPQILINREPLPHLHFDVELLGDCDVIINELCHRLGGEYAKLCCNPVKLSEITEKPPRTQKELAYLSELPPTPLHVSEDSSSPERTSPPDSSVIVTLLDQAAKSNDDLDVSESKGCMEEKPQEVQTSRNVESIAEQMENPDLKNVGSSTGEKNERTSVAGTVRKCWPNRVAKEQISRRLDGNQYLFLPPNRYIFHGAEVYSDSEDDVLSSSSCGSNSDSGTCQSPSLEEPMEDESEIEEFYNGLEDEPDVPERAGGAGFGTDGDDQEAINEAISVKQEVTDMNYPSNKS
In short: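 Recombinant N-terminal His-tagged human SIRT1 (10 nM, E. coli) incubated 25 min at 25 °C with 0.5 μM 5TMR-labelled p53-derived acetyl-peptide and 120 μM βNAD+ in Tris-acetate pH 8 buffer with DTT and 0.05% BSA, compound at varying concentrations. Stopped with formic acid; deacetylated peptide or OAADPR measured by mass spectrometry relative to DMSO controls.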

SIRT1 [2] = target: T1, SIRT1; assay: Trp mass spectrometry assay of SIRT1 activity; format: biochemical; settings: for Emax: read-out: Trp % Fold Act
In short: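 His-tagged SIRT1 expressed in E. coli BL21(DE3), 10 nM, incubated 25 min at 25° C. with 0.5 μM Ac-RHKK(Ac)W-NH2 peptide and 120 μM βNAD+ in 50 mM HEPES pH 7.5, […], 1 mM DTT, 0.05% BSA; formic acid stop. OAADPR or deacetylated peptide measured by mass spectrometry; EC1.5 and percent maximum activation versus DMSO control.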

[3] = concentration of test compound giving 150% activation of SIRT1, TAMRA peptide substrate
[4] = percent maximum fold activation of SIRT1, TAMRA peptide substrate
[5] = concentration of test compound giving 150% activation of SIRT1, Trp peptide substrate
[6] = percent maximum fold activation of SIRT1, Trp peptide substrate
[7] = TAMRA assay, concentration giving 150% activation of SIRT1
[8] = TAMRA assay, percent maximum fold activation
[9] = Trp assay, concentration giving 150% activation of SIRT1
[10] = Trp assay, percent maximum fold activation

Row | SMILES | TAMRA EC1.5 (μM) (SIRT1 [1]; [3]) | Emax (SIRT1 [1]; [4]) [%] | Trp EC1.5 (μM) (SIRT1 [2]; [5]) | Emax (SIRT1 [2]; [6]) [%] | TAMRA EC1.5 (μM) (SIRT1 [1]; [7]) | Emax (SIRT1 [1]; [8]) [%] | Trp EC1.5 (μM) (SIRT1 [2]; [9]) | Emax (SIRT1 [2]; [10]) [%]
1 | O=C(Nc1cnc2ccc(-c3ccccc3C(F)(F)F)nn12)c1cccnc1OCC(O)CO (stereo not shown) [Compound 146] | A (EC1.5<1 μM) | ≥ 350 | B (EC1.5 1-25 μM) | ≥ 350 | – | – | – | –
2 | O=C(Nc1ccc(CN2CCCC2)nc1)c1cnc2ccc(-c3ccccc3C(F)(F)F)nn12 [Compound 149] | B (EC1.5 1-25 μM) | < 350 | B (EC1.5 1-25 μM) | < 350 | – | – | – | –
3 | O=C(Nc1ncc(CN2CCOCC2)s1)c1cnc2ccc(-c3ccccc3C(F)(F)F)nn12 [Compound 150] | B (EC1.5 1-25 μM) | < 350 | B (EC1.5 1-25 μM) | < 350 | – | – | – | –
4 | Cc1csc(NC(=O)c2cnc3ccc(-c4ccccc4C(F)(F)F)nn23)n1 [Compound 152] | A (EC1.5<1 μM) | ≥ 350 | A (EC1.5<1 μM) | ≥ 350 | – | – | – | –
5 | CN(C)CCn1cc(NC(=O)c2cnc3ccc(-c4ccccc4C(F)(F)F)nn23)cn1 [Compound 155] | B (EC1.5 1-25 μM) | < 350 | C (EC1.5>25 μM) | < 350 | – | – | – | –
6 | O=C(Nc1ccnc(N2CCC2)c1)c1cnc2ccc(-c3cccc(Cl)c3F)nn12 [Compound 159] | A (EC1.5<1 μM) | < 350 | B (EC1.5 1-25 μM) | < 350 | – | – | – | –
7 | O=C(Nc1ccncc1)c1cnc2ccc(-c3c(F)cccc3Cl)nn12 [Compound 161] | B (EC1.5 1-25 μM) | < 350 | C (EC1.5>25 μM) | < 350 | – | – | – | –
8 | O=C(Nc1cccc(N2CCOCC2)n1)c1cnc2ccc(-c3c(F)cccc3Cl)nn12 [Compound 164] | A (EC1.5<1 μM) | ≥ 350 | B (EC1.5 1-25 μM) | < 350 | – | – | – | –
9 | O=C(Nc1ccccn1)c1cnc2ccc(-c3c(F)cccc3F)nn12 [Compound 167] | C (EC1.5>25 μM) | < 350 | C (EC1.5>25 μM) | < 350 | – | – | – | –
10 | O=C(Nc1ccnc(N2CCC2)c1)c1cnc2ccc(-c3c(F)cccc3F)nn12 [Compound 170] | A (EC1.5<1 μM) | < 350 | B (EC1.5 1-25 μM) | < 350 | – | – | – | –
11 | O=C(Nc1cccc(CN2CCOCC2)n1)c1cnc2ccc(-c3c(F)cccc3F)nn12 [Compound 172] | B (EC1.5 1-25 μM) | ≥ 350 | C (EC1.5>25 μM) | < 350 | – | – | – | –
12 | COc1nccc(NC(=O)c2cnc3ccc(-c4ccccc4C(F)(F)F)nn23)n1 [Compound 173] | A (EC1.5<1 μM) | ≥ 350 | B (EC1.5 1-25 μM) | ≥ 350 | – | – | – | –
13 | COc1ccnc(NC(=O)c2cnc3ccc(-c4ccccc4C(F)(F)F)nn23)n1 [Compound 175] | A (EC1.5<1 μM) | ≥ 350 | B (EC1.5 1-25 μM) | ≥ 350 | – | – | – | –
14 | O=C(Nc1cnccc1N1CCOCC1)c1cnc2ccc(-c3ccccc3C(F)(F)F)nn12 [Compound 177] | C (EC1.5>25 μM) | < 350 | C (EC1.5>25 μM) | < 350 | – | – | – | –
15 | O=C(Nc1ccccn1)c1cnc2ccc(-c3cccc(F)c3Cl)nn12 [Compound 182] | B (EC1.5 1-25 μM) | < 350 | B (EC1.5 1-25 μM) | < 350 | – | – | – | –
16 | O=C(Nc1cccnc1)c1cnc2ccc(-c3cccc(F)c3Cl)nn12 [Compound 183] | B (EC1.5 1-25 μM) | < 350 | C (EC1.5>25 μM) | < 350 | – | – | – | –
17 | CS(=O)(=O)c1ccccc1-c1ccc2ncc(C(=O)Nc3ccnc(N4CCC4)c3)n2n1 [Compound 186] | B (EC1.5 1-25 μM) | < 350 | C (EC1.5>25 μM) | < 350 | – | – | – | –
18 | CS(=O)(=O)c1ccccc1-c1ccc2ncc(C(=O)Nc3cccnc3)n2n1 [Compound 189] | C (EC1.5>25 μM) | < 350 | C (EC1.5>25 μM) | < 350 | – | – | – | –
19 | Cc1cc(-c2ccccc2C(F)(F)F)nn2c(C(=O)Nc3cccc(N4CCOCC4)n3)cnc12 [Compound 192] | A (EC1.5<1 μM) | ≥ 350 | A (EC1.5<1 μM) | ≥ 350 | – | – | – | –
20 | COc1cc(NC(=O)c2cnc3ccc(-c4ccccc4C(F)(F)F)nn23)ncn1 [Compound 197] | – | – | – | – | A (EC1.5<1 μM) | ≥ 350 | B (EC1.5 1-25 μM) | < 350
21 | COc1cc(OC)nc(NC(=O)c2cnc3ccc(-c4ccccc4C(F)(F)F)nn23)n1 [Compound 198] | – | – | – | – | A (EC1.5<1 μM) | ≥ 350 | B (EC1.5 1-25 μM) | < 350
22 | Cc1cc(-c2ccccc2C(F)(F)F)nn2c(C(=O)Nc3cccnc3)cnc12 [Compound 206] | – | – | – | – | B (EC1.5 1-25 μM) | ≥ 350 | B (EC1.5 1-25 μM) | ≥ 350
23 | Cc1cc(-c2ccccc2C(F)(F)F)nn2c(C(=O)Nc3ccnc(N4CCC4)c3)cnc12 [Compound 207] | – | – | – | – | A (EC1.5<1 μM) | ≥ 350 | A (EC1.5<1 μM) | ≥ 350
24 | Cc1cc2ncc(C(=O)Nc3cccnc3)n2nc1-c1ccccc1C(F)(F)F [Compound 210] | – | – | – | – | B (EC1.5 1-25 μM) | ≥ 350 | B (EC1.5 1-25 μM) | ≥ 350
25 | O=C(Nc1cncc(OCC(O)CO)n1)c1cnc2ccc(-c3ccccc3C(F)(F)F)nn12 (stereo not shown) [Compound 213] | – | – | – | – | A (EC1.5<1 μM) | ≥ 350 | A (EC1.5<1 μM) | ≥ 350
26 | O=C(Nc1cnc2ccc(-c3ccccc3C(F)(F)F)nn12)c1ccnc(CN2CCCC2)c1 [Compound 214] | – | – | – | – | C (EC1.5>25 μM) | < 350 | C (EC1.5>25 μM) | < 350
27 | O=C(Nc1cccnc1N1CCOCC1)c1cnc2ccc(-c3ccccc3C(F)(F)F)nn12 [Compound 215] | – | – | – | – | C (EC1.5>25 μM) | < 350 | C (EC1.5>25 μM) | < 350
28 | O=C(Nc1cnc2ccc(-c3ccccc3C(F)(F)F)nn12)c1cscn1 [Compound 218] | – | – | – | – | A (EC1.5<1 μM) | ≥ 350 | B (EC1.5 1-25 μM) | < 350
